Tests used:
mouse myoblast cells = test: In vitro cell-based drug screening of mouse myoblast cells with machine-learning biological age prediction; set-up: species or system C57BL/6J mice; details: for Change relative to control: average predicted age of treatment vs vehicle control wells on the same plate, concentrations of Table 8; for Average predicted age of treatment (months): primary myoblasts, concentrations of Table 8: Oxytocin 30 nM, TGFbeta 10 ng/mL, Wnt3a 100 ng/ml, Klotho 0.5 μg/mL, ALK5 inhibitor II 0.5 μM, PP242 300 nM, stained 48 hours post-plating
Procedure: The machine learning systems and methods for predicting biological age were applied toward accelerating drug screens designed to detect interventions that slow or reverse one or more phenotypes of aging. Such a drug screening approach was tested using proof-of-concept drug screens, including an in vitro drug screening experimental model. This machine learning-based drug screening approach for aging-related therapies is described below. The machine learning-based mouse myoblast cellular aging approach was used to test an in vitro screening model for detecting anti-aging molecules for myoblasts.
The myoblast cell screening was run in parallel with the myoblast biological age prediction described in Example 3, and the same processes for primary cell acquisition, preparation, processing, and image acquisition steps were performed as described in Example 3.
For myoblast screening, replicate 384-well plates were dedicated to testing compound treatments (Treatment Plates) and were seeded with primary myoblasts, replicating the same plate layout as the myoblast age prediction experiment described in Example 3.
For the Treatment Plates, after the cells adhere to the plate (around 2 hours post-plating) the media was changed. For each set of 10 replicate wells from each primary myoblast line, 4 of the wells received media supplemented with vehicle control, 3 wells received media supplemented with one test compound, and 3 wells received media supplemented with another test compound. In this manner, each Treatment Plate was used to test two different compounds, and three Treatment Plates were used in total to test six different compounds.
All Treatment Plates were fed 24 hours post-plating with myoblast growth media supplemented with drugs or their respective vehicle control.
As mentioned, the plates are handled, processed, and stained in the same way as described in the myoblast biological age prediction described in Example 3. Briefly, these plates were stained for EdU, desmin, ER cytopainter, and counterstained with Hoechst.
Next, the data were prepared using a similar process as that described in Example 3. This created a treatment dataset that was analyzed using a previously generated aging model, which was trained on the aging dataset that was generated as described in Example 3.
Next, the data was analyzed using a similar deep convolutional neural network architecture and the machine learning analysis approach described in Example 1. First, the deep convolutional neural network architecture was trained using the aging dataset and the machine learning analysis approach described in Example 1. Performing this training yields a final set of weights to use with the neural network for the treatment analysis. Second, the effects of the treatments were analyzed by applying the generated neural network to the entirety of the treatment dataset. This is subsequently referred to as a “transference” of the aging model to the treatment data.
Next, as described in Example 6, average age predictions for each mouse were produced by predicting the biological age classification for each tile and averaging all tiles' predictions together. This calculation was performed for all three folds of the data, and those average predictions were then averaged together again. This produced a single numerical biological age prediction for each mouse, which was compared to control.
Next, as described in Example 6, p-values were calculated using the Kolmogorov-Smirnov test to assess the statistical difference of the distributions of age predictions for each compound versus control. Note that in this case, because there are multiple plates being tested, each with different test compounds, each compound is compared only to the control wells on its own plate, thereby resulting in different control values for each compound, as shown in Table 9.

mouse skin tissue = test: In vivo tissue-based drug screening of mouse skin tissue with machine-learning biological age prediction; set-up: species or system C57BL/6J mice; details: daily topical application for 61 days
Procedure: The machine learning systems and methods for predicting biological age were applied toward accelerating drug screens designed to detect interventions that slow or reverse one or more phenotypes of aging. Such a drug screening approach was tested using proof-of-concept drug screens, including an in vivo drug screening experimental model. This machine learning-based drug screening approach for aging-related therapies is described below. The machine learning-based skin tissue aging modeling approach was used to test an in vivo screening system for detecting topical anti-aging interventions on mouse skin.
Mouse skin tissue samples were acquired and prepared as follows. Skin samples were collected from 75 healthy C57BL/6J mice in five separate groups: 15 mice in a control group were 10 months old (“Control 1”), 15 mice in another control group were 14 months old (“Control 2”), 15 mice in a third control group were 18 months old (“Control 3”), and two independent treatment groups comprised 18-month-old mice (“Test Article 1” and “Test Article 2”). Each treatment group included 15 mice given a daily topical application for 61 days, as detailed below. All mouse ages are referenced from the start of the experiment.
The mice were shaved as necessary on a weekly basis in order to enable daily topical application on the back of the mice. […]

Compound | Change relative to control (mouse myoblast cells) [%] | Average predicted age of treatment (months) (mouse myoblast cells) | Average predicted age (months) (mouse skin tissue; 18-month-old mice, HES-stained skin biopsies, averaged over tiles, three folds and mice) | Change relative to control group (mouse skin tissue; average predicted age vs control group (averaged across control groups 1-3)) [%]
Wnt3a | −5.04 | 64.11 | – | –
CC[C@H](C)[C@@H]1NC(=O)[C@H](Cc2ccc(O)cc2)NC(=O)[C@@H](N)CSSC[C@@H](C(=O)N2CCC[C@H]2C(=O)N[C@@H](CC(C)C)C(=O)NCC(N)=O)NC(=O)[C@H](CC(N)=O)NC(=O)[C@H](CCC(N)=O)NC1=O [Oxytocin] | −0.92 | 67.66 | – | –
CC(C)n1nc(-c2cc3cc(O)ccc3[nH]2)c2c(N)ncnc21 [PP242] | −17.14 | 56.16 | – | –
Cc1cccc(-c2[nH]ncc2-c2ccc3ncccc3n2)n1 [ALK5 inhibitor II] | −14.13 | 56.22 | – | –
CC1=C(/C=C/C(C)=C/C=C/C(C)=C/C(=O)O)C(C)(C)CCC1 [Test Article 1, All Trans Retinoic Acid] | – | – | 15.9 | −7.28
